# Test results: ChEMBL document CHEMBL1127552, “Approaches toward selective inhibition of nitric oxide synthase” (J Med Chem, 1994)
# pIC50: −log10 of the molar value.
# Legend:
# [1] = molecular target: T1, Nitric oxide synthase, inducible (Mus musculus, UniProt P29477); experiment: Compound was tested for its inhibitory activity against macrophage NO2- synthesis
# T1 sequence (P29477 whole entry): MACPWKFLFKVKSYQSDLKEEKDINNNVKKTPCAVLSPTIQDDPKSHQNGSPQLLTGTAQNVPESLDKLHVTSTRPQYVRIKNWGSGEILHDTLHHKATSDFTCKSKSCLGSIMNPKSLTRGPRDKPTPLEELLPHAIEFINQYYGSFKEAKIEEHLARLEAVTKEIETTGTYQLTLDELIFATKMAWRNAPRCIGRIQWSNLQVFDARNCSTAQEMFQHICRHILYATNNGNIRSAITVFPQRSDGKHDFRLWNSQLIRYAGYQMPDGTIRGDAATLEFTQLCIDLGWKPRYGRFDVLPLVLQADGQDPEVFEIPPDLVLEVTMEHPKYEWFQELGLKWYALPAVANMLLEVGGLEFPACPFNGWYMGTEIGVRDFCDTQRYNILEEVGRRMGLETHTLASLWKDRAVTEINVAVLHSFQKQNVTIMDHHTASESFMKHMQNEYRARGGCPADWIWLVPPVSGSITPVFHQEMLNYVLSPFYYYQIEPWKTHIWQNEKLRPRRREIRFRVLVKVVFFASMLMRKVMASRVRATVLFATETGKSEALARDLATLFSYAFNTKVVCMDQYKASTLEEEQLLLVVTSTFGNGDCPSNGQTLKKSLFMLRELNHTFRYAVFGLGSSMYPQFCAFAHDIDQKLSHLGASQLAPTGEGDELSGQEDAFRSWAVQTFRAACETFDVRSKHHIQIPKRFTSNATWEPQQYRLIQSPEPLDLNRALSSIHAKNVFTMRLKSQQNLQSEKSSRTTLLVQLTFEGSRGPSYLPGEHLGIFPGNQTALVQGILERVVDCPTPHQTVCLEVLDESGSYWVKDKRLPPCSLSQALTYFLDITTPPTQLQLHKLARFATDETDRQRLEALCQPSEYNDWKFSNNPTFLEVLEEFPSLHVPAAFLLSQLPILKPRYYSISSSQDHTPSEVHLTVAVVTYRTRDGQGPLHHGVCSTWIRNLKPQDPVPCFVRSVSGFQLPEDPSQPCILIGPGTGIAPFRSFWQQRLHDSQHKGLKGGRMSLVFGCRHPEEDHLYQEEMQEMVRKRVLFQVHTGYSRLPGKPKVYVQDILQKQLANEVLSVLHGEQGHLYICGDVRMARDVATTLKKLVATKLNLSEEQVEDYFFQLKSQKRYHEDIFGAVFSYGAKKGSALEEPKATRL
# [2] = molecular target: T2, Nitric oxide synthase 3 (Bos taurus, UniProt P29473); experiment: Compound was tested for its inhibitory activity against endothelial NO2- synthesis
# T2 sequence (P29473 whole entry): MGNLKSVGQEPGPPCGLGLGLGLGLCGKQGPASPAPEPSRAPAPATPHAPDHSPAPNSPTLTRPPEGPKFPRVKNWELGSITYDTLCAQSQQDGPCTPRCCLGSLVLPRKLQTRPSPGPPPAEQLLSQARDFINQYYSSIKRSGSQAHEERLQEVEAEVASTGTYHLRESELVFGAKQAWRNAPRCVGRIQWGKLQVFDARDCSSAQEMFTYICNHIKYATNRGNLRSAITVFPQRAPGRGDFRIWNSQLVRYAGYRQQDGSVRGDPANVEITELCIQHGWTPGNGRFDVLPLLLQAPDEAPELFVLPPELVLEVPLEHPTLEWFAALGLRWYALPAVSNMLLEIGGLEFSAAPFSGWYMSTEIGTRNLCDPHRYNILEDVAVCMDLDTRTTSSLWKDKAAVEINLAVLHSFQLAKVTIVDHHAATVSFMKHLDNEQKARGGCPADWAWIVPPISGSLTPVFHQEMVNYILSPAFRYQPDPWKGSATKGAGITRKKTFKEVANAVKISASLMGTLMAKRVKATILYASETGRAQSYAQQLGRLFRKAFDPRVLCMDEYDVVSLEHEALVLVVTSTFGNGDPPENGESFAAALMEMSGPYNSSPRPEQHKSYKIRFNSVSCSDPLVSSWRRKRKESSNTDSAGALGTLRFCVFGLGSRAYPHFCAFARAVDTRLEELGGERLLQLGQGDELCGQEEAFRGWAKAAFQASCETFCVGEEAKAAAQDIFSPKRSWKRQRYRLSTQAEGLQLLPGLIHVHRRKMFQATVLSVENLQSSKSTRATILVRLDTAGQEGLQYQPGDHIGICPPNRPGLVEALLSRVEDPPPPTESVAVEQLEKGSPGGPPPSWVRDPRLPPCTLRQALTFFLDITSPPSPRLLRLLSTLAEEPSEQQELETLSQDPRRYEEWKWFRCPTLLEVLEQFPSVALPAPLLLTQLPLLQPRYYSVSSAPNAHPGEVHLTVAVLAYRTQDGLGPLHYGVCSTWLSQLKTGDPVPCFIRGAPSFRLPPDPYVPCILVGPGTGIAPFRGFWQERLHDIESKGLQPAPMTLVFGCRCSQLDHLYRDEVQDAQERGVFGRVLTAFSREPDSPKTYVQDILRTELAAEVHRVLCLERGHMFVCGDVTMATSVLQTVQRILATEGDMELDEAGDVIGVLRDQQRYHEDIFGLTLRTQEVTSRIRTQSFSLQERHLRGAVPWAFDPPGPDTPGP
pIC50 [1],Structure (SMILES),pIC50 [2]
4.22,CNC(N)NCCCC(N)C(=O)O (configuration not stated),–
–,COC(=O)[C@@H](N)CCCNC(=N)N[N+](=O)[O-] [L-NAME],4.00
